molecular target: PD-1/PD-L1 (Homo sapiens (Human), UniProt Q9NZQ7); assay: PD-1/PD-L1 binding assay (HTRF)
Procedure: The assays were conducted in a standard black 384-well polystyrene plate with a final volume of 20 μL. Inhibitors were first serially diluted in DMSO and then added to the plate wells before the addition of other reaction components. The final concentration of DMSO in the assay was 1%. The assays were carried out at 25° C. in the PBS buffer (pH 7.4) with 0.05% Tween-20 and 0.1% BSA. Recombinant human PD-L1 protein (19-238) with a His-tag at the C-terminus was purchased from AcroBiosystems (PD1-H5229). Recombinant human PD-1 protein (25-167) with Fc tag at the C-terminus was also purchased from AcroBiosystems (PD1-H5257). PD-L1 and PD-1 proteins were diluted in the assay buffer and 10 μL was added to the plate well. Plates were centrifuged and proteins were preincubated with inhibitors for 40 minutes. The incubation was followed by the addition of 10 μL of HTRF detection buffer supplemented with Europium cryptate-labeled anti-human IgG (PerkinElmer-AD0212) specific for Fc and anti-His antibody conjugated to SureLight®-Allophycocyanin (APC, PerkinElmer-AD0059H). After centrifugation, the plate was incubated at 25° C. for 60 min. before reading on a PHERAstar FS plate reader (665 nm/620 nm ratio). Final concentrations in the assay were […], 10 nM PD-L1, 1 nM europium anti-human IgG and 20 nM anti-His-Allophycocyanin. IC50 determination was performed by fitting the curve of percent control activity versus the log of the inhibitor concentration using the GraphPad Prism 5.0 software.

PD-1/PD-L1, sequence (Q9NZQ7 19-238): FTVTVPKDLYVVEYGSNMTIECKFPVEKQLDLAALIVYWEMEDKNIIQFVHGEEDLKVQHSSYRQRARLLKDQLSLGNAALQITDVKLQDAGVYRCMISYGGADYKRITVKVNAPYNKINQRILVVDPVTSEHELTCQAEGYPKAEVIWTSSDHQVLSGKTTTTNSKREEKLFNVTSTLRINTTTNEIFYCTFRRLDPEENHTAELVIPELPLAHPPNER

IC50, ≤ 10 nM:
CN1CCc2c(nc(C(=O)Nc3cccc(-c4cccc(NC(=O)c5nc6c(n5C)CCN(C[C@H]5CC[C@@H](C(=O)O)CC5)C6)c4Cl)c3Cl)n2C)C1 [Example 69, cis-4-((2-((2,2′-dichloro-3′-(1,5-dimethyl-4,5,6,7-tetrahydro-1H-imidazo[4,5-c]pyridine-2-carboxamido)-[1,1′-biphenyl]-3-yl)carbamoyl)-1-methyl-1,4,6,7-tetrahydro-5H-imidazo[4,5-c]pyridin-5-yl)methyl)cyclohexane-1-carboxylic acid]
C[C@H](O)CN1CCc2c(nc(C(=O)Nc3cccc(-c4cccc(NC(=O)c5nc6c(n5C)CCN(CC[C@H]5CC[C@H](C(=O)O)CC5)C6)c4Cl)c3Cl)n2C)C1 [Example 94, trans-4-(2-(2-((2,2′-dichloro-3′-(5-((S)-2-hydroxypropyl)-1-methyl-4,5,6,7-tetrahydro-1H-imidazo[4,5-c]pyridine-2-carboxamido)-[1,1′-biphenyl]-3-yl)carbamoyl)-1-methyl-1,4,6,7-tetrahydro-5H-imidazo[4,5-c]pyridin-5-yl)ethyl)cyclohexane-1-carboxylic acid]
Cc1c(-c2nc3c(o2)CN(C(=O)CN[C@H]2C[C@H](O)C2)C3)cccc1-c1cccc(NC(=O)c2nc3c(n2C)CCN(C)C3)c1Cl [Compound 166, N-(2-chloro-3′-(5-((trans-3-hydroxycyclobutyl)glycyl)-5,6-dihydro-4H-pyrrolo[3,4-d]oxazol-2-yl)-2′-methyl-[1,1′-biphenyl]-3-yl)-1,5-dimethyl-4,5,6,7-tetrahydro-1H-imidazo[4,5-c]pyridine-2-carboxamide]
Cn1c(C(=O)Nc2cccc(-c3cccc(NC(=O)c4nc5c(n4C)CCN(CC46CCC(C(=O)O)(CC4)C6)C5)c3Cl)c2Cl)nc2c1CCN(CCO)C2 [Compound 180, 4-((2-(2,2′-dichloro-3′-(5-(2-hydroxyethyl)-1-methyl-4,5,6,7-tetrahydro-1H-imidazo[4,5-c]pyridine-2-carboxamido)biphenyl-3-ylcarbamoyl)-1-methyl-6,7-dihydro-1H-imidazo[4,5-c]pyridin-5(4H)-yl)methyl)bicyclo[2.2.1]heptane-1-carboxylic acid]
Cc1c(NC(=O)c2nc3c(n2C)CCN(CCCNS(C)(=O)=O)C3)cccc1-c1cccc(NC(=O)c2nc3c(n2C)CCN(C)C3)c1Cl [Example 36, N-(2-chloro-2′-methyl-3′-(1-methyl-5-(3-(methylsulfonamido)propyl)-4,5,6,7-tetrahydro-1H-imidazo[4,5-c]pyridine-2-carboxamido)biphenyl-3-yl)-1,5-dimethyl-4,5,6,7-tetrahydro-1H-imidazo[4,5-c]pyridine-2-carboxamide]
Cc1c(NC(=O)c2nc3c(n2C)CCN(C[C@H](C)O)C3)cccc1-c1cccc(NC(=O)c2nc3c(n2C)CCN(C(C)C)C3)c1Cl [Example 45, (S)—N-(2-chloro-3′-(5-(2-hydroxypropyl)-1-methyl-4,5,6,7-tetrahydro-1H-imidazo[4,5-c]pyridine-2-carboxamido)-2′-methylbiphenyl-3-yl)-5-isopropyl-1-methyl-4,5,6,7-tetrahydro-1H-imidazo[4,5-c]pyridine-2-carboxamide]
Cc1c(NC(=O)c2nc3c(n2C)CCN(C2CCC(C)(C(=O)O)CC2)C3)cccc1-c1cccc(NC(=O)c2nc3c(n2C)CCN(C2CCCCC2)C3)c1Cl (stereo not shown) [Example 107, 4-(2-((2′-chloro-3′-(5-cyclohcxyl-1-methyl-4,5,6,7-tetrahydro-1H-imidazo[4,5-c]pyridine-2-carboxamido)-2-methyl-[1,1′-biphenyl]-3-yl)carbamoyl)-1-methyl-1,4,6,7-tetrahydro-5H-imidazo[4,5-c]pyridin-5-yl)-1-methylcyclohexane-1-carboxylic acid]
Cc1c(NC(=O)c2nc3c(n2C)CCN(C[C@H](C)O)C3)cccc1-c1cccc(NC(=O)c2nc3c(n2C)CCN(C2CCOCC2)C3)c1Cl [Example 47, (S)—N-(2′-chloro-2-methyl-3′-(1-methyl-5-(tetrahydro-2H-pyran-4-yl)-4,5,6,7-tetrahydro-1H-imidazo[4,5-c]pyridine-2-carboxamido)biphenyl-3-yl)-5-(2-hydroxypropyl)-1-methyl-4,5,6,7-tetrahydro-1H-imidazo[4,5-c]pyridine-2-carboxamide]
Cc1c(NC(=O)c2nc3c(n2C)CCN(C[C@H]2CC[C@@H](C(=O)O)CC2)C3)cccc1-c1cccc(NC(=O)c2nc3c(n2C)CCNC3)c1Cl [Example 113, cis-4-((2-((2′-chloro-2-methyl-3′-(1-methyl-4,5,6,7-tetrahydro-1H-imidazo[4,5-c]pyridine-2-carboxamido)-[1,1′-biphenyl]-3-yl)carbamoyl)-1-methyl-1,4,6,7-tetrahydro-5H-imidazo[4,5-c]pyridin-5-yl)methyl)cyclohexane-1-carboxylic acid]
Cn1c(C(=O)Nc2cccc(-c3cccc(NC(=O)c4nc5c(n4C)CCN(C4CCCCC4)C5)c3Cl)c2Cl)nc2c1CCN(CC[C@H]1CC[C@H](C(=O)O)CC1)C2 [Example 91, trans-4-(2-(2-((2,2′-dichloro-3′-(5-cyclohexyl-1-methyl-4,5,6,7-tetrahydro-1H-imidazo[4,5-c]pyridine-2-carboxamido)-[1,1′-biphenyl]-3-yl)carbamoyl)-1-methyl-1,4,6,7-tetrahydro-5H-imidazo[4,5-c]pyridin-5-yl)ethyl)cyclohexane-1-carboxylic acid]
Cn1c(C(=O)Nc2cccc(-c3cccc(NC(=O)c4nc5c(n4C)CCN(C4CCC(C)(C(=O)O)CC4)C5)c3Cl)c2Cl)nc2c1CCN(C1CCOCC1)C2 (stereo not shown) [Example 98, 4-(2-((2,2′-dichloro-3′-(1-methyl-5-(tetrahydro-2H-pyran-4-yl)-4,5,6,7-tetrahydro-1H-imidazo[4,5-c]pyridine-2-carboxamido)-[1,1′-biphenyl]-3-yl)carbamoyl)-1-methyl-1,4,6,7-tetrahydro-5H-imidazo[4,5-c]pyridin-5-yl)-1-methylcyclohexane-1-carboxylic acid]
Cc1c(NC(=O)c2cc(CN3CCCC3)cn(C)c2=O)cccc1-c1cccc(NC(=O)c2nc3c(n2C)CCN(C)C3)c1Cl [Example 50, N-(2-chloro-2′-methyl-3′-(1-methyl-2-oxo-5-(pyrrolidin-1-ylmethyl)-1,2-dihydropyridine-3-carboxamido)biphenyl-3-yl)-1,5-dimethyl-4,5,6,7-tetrahydro-1H-imidazo[4,5-c]pyridine-2-carboxamide]
Cn1c(C(=O)Nc2cccc(-c3cccc(NC(=O)c4nc5c(n4C)CCN(C4CCC4)C5)c3Cl)c2Cl)nc2c1CCN(CC[C@H]1CC[C@H](C(=O)O)CC1)C2 [Example 89, trans-4-(2-(2-((2,2′-dichloro-3′-(5-cyclobutyl-1-methyl-4,5,6,7-tetrahydro-1H-imidazo[4,5-c]pyridine-2-carboxamido)-[1,1′-biphenyl]-3-yl)carbamoyl)-1-methyl-1,4,6,7-tetrahydro-5H-imidazo[4,5-c]pyridin-5-yl)ethyl)cyclohexane-1-carboxylic acid]

Reference: patent US10806785B2, “Immunomodulator compounds and methods of use” (Incyte Corporation, priority 2016, dated 2020)
